# Marks after values point to notes of the source that are not given here.
# Legend:
# [1] = system: transplanted hair follicles; experiment: Further clinical study: topical scalp treatment around hair transplantation; type: in vivo, human; settings: once a day from 15 days before to 90 days after the transplant
# 5α-reductase = experiment: Modulation of 5α-reductase activity (testosterone to DHT conversion, ELISA) in mouse fibroblasts after 48 hours of treatment; type: cell-based; settings: for % inhibition of 5α-reductase / Total DHT ng (±SE) / Inhibition of 5α-reductase activity in vitro (result in words): 0.1 mg/ml, 48 hours; for % inhibition of 5α-reductase / Total DHT ng (±SE): pre-incubation for 24 hours with testosterone 10 ng/ml; for % inhibition of 5α-reductase: confidence interval; for Total DHT ng (±SE): final table; for Testosterone, cell extract / Testosterone, supernatant / DHT, cell extract / DHT, supernatant / Final DHT, cell extract / Final DHT, supernatant / Total DHT produced: sample 100 μg/ml; for Testosterone, cell extract / Testosterone, supernatant / DHT, cell extract / DHT, supernatant: 48 h; for Testosterone, cell extract: Balb/c-3T3; for Testosterone, supernatant: Balb/c-3T3 pre-incubated 24 h with testosterone 10 ng/ml; for DHT, cell extract / DHT, supernatant: uncorrected measured DHT; for Final DHT, cell extract: corrected for testosterone crosslinking; for Final DHT, supernatant: measured DHT minus bovine serum DHT minus testosterone crosslinking; for Total DHT produced: per flask (supernatant 10 ml + cell extract 0.5 ml); for Inhibition of 5α-reductase activity in vitro (result in words): mouse fibroblasts Balb/c-3T3, versus untreated control
# Method: Assessment of the modulation of 5α-reductase activity after treatment for 48 hours with the above-stated compounds in a cell line of mouse fibroblasts.
# For this test, the fibroblasts were pretreated with testosterone to increase the basal production of 5α-reductase, then they were treated with the above-mentioned compounds for 48 hours.
# At the end of the treatment, the conversion of testosterone into DHT was measured in the treated and untreated cell cultures, using a two-way ELISA. This procedure enables an estimation of the percentage inhibition or stimulation of the specific activity of 5α-reductase.
# As a positive control, we used a titrated extract of Serenoa repens (saw palmetto), a plant known in the pharmacopoeia for its capacity to inhibit 5α-reductase and recommended for said purpose in the treatment of prostatic hyperplasia in males.
# The cell model used for the in vitro test consisted of mouse fibroblasts Balb/c-3T3. This cell line derives from fibroblasts of […] mouse embryos.
# The samples of the above-described compounds were solubilised as follows: • 2,4,6-octatrien-1-ol: 1 mg/ml in absolute ethanol • alternative Boehmeria: 5 mg/ml in growth medium+5% DMSO • traditional Boehmeria: 2.5 mg/ml in growth medium+5% DMSO • Ajuga reptans extract: 5 mg/ml in growth medium+5% DMSO • Finasteride: 5 mg/ml in absolute ethanol • Serenoa repens: 10 μl/ml in absolute ethanol Treatment and Exposure Pre-Incubation
# The cells were seeded in 25 cm^2 flasks (T25) in DMEM (Dulbecco's […]) with the addition of 10% FBS (foetal bovine serum). As soon as confluence was achieved, the cultures were treated for 24 hours with 10 ng/ml of testosterone.
# After the pre-incubation phase, the cell cultures were treated with said samples at the final concentration of 0.1 mg/ml. The Serenoa repens extract at 0.1 mg/ml was used as a positive control, while the negative control consisted in plates treated with the solvent. Exposure was protracted for 48 hours in the incubator at 37° C., 5% CO2, renewing the medium every 24 hours. Each sample was tested in duplicate.
# At the end of the experiment, a cell count was conducted to assess any cytotoxic effects. The of DHT and testosterone content was measured using immunodiagnostic tests (ELISA) in the extracellular (conditioned growth media) and in the intracellular (cell extracts) compartments.
# At the end of the experiment, the growth medium was collected from each flask and a cell extract was prepared.
# This was done in four stages: • trypsinisation of the cell layer in situ in the flask • centrifugation and collection of the cells in pellets • extraction with Triton X-100 (1% in basal medium) • ultrasonication for 30 minutes. DHT and Testosterone Measurement
# The two hormones, DHT and testosterone, were measured both in the supernatant (extracellular DHT/testosterone) and in the cell extracts (intracellular DHT/testosterone).
# It is therefore of fundamental importance to determine the quantity of testosterone remaining at the end of the test in order to distinguish it from the newly-synthesised DHT. Moreover, the presence of DHT in foetal bovine serum (FBS), the main component in the growth medium, represents a source of exogenous DHT that must be taken into account in calculating the DHT actually produced by the cells starting from the testosterone.
# The method involves the composition of a standard curve, calculated in an appropriate range of concentrations, and uses specific antibodies immobilised on a solid substrate directed against DHT/testosterone, and a reagent that competes for binding to the antibody.
# androgenetic alopecia = experiment: Clinical pilot study, Group 1: androgenetic alopecia, topical administration on the scalp; type: in vivo, human
# Method: (§1) A clinical pilot study was also conducted to assess the efficacy of a composition according to the invention in the treatment of male and female androgenetic alopecia and alopecia greata.
# (§2) In the composition according to the invention forming the object of this clinical study, said active principle was a salt, and a potassium salt in particular, of 2,4,6-octatrienoic acid, formulated for topical administration on the scalp, in a single daily dose.
# Thirty individuals of both genders were recruited (15 males and 15 females) aged between 18 and 55 years, suffering from androgenetic alopecia (grades I-III according to the Hamilton scale for men, and I-II according to the Ludwig scale for women). Since this was a pilot study, an open trial was conducted, administering the composition of the invention.
# Exclusion criteria from the study were as follows: • concomitant hormonal and/or pharmacological therapies; • pregnancy and breast-feeding; • systemic hormonal, metabolic and autoimmune diseases; • specific trichological treatments in the previous three months; • concomitant inflammatory diseases of the scalp, e.g. seborrhoeic dermatitis, irritative or allergic dermatitis.
# The clinical and dermoscopic assessment of the individuals to treat focused on: hair shaft diameter, presence of a perifollicular halo, evaluation of the anagen phase by epiluminescence study of the bulb.
# After the baseline assessment at T0, before starting the treatment, two evaluations after the treatment were conducted, one at T1 after 1 month, and one at T2 after 3 months.
# At each follow-up assessment, a clinical evaluation was performed using epiluminescence to establish the hair shaft diameter in a previously-established and marked area (MoleMax II, Dermal Instruments Italia).
# alopecia greata = experiment: Clinical pilot study, group with alopecia greata (area celsi), topical administration on the scalp; type: in vivo, human
# Method: as §1, §2
# Alopecia greata (also called area celsi) is a disease involving sudden hair loss typically giving rise to bald patches (or areas).
# A significant characteristic of the evolutional stages of alopecia greata is the presence of “exclamation mark” hairs, so called because they appear tapered towards the base.
# For the group of individuals treated, the pilot study only enabled us to identify a trend (clinical improvement, stability, worsening) within the short time span considered, i.e. from the baseline T0 before starting the treatment up to T2 after three months of treatment, based on the following parameters: • hair loss • progression of bald patches on the scalp • presence of exclamation mark hairs Results
# [2] = T2 after 3 months, mean at T0 0.4 mm
# [3] = T2 after 3 months, mean at T0 56%
# [4] = single daily topical dose, epiluminescence, follow-up to T2 (3 months)
# [5] = T0 to T2 (three months of treatment)
compound,measurement,setting,value
"2,4,6-octatrienoic acid salt",Prevention of premature apoptosis and catagen in transplanted hair follicles (result in words),[1],promising
"C/C=C/C=C/C=C/CO [2,4,6-octatrien-1-ol, 2E,4E,6E-Octatrien-1-ol]",% inhibition of 5α-reductase,5α-reductase,27-43%
same,Total DHT ng (±SE),5α-reductase,2.3 (±0.1) ng
same,"Testosterone, cell extract",5α-reductase,1 ng/mL
same,"Testosterone, supernatant",5α-reductase,1.25 ng/mL
same,"DHT, cell extract",5α-reductase,450 pg/mL
same,"DHT, supernatant",5α-reductase,425 pg/mL
same,"Final DHT, cell extract",5α-reductase,363 pg/mL
same,"Final DHT, supernatant",5α-reductase,216 pg/mL
same,Total DHT produced,5α-reductase,2.34 ng
CC(C)(C)NC(=O)[C@H]1CC[C@H]2[C@@H]3CC[C@H]4NC(=O)C=C[C@]4(C)[C@H]3CC[C@]12C [Finasteride],Inhibition of 5α-reductase activity in vitro (result in words),5α-reductase,no significant inhibitory effect
same,Inhibition of 5α-reductase activity in vitro (result in words),5α-reductase; listed as finasteride,no real inhibitory effect
same,% inhibition of 5α-reductase,5α-reductase,0-15* %
same,Total DHT ng (±SE),5α-reductase,3.6 (±0.3) ng
same,"Testosterone, cell extract",5α-reductase,3.1 ng/mL
same,"Testosterone, supernatant",5α-reductase,0 ng/mL
same,"DHT, cell extract",5α-reductase,400 pg/mL
same,"DHT, supernatant",5α-reductase,450 pg/mL
same,"Final DHT, cell extract",5α-reductase,130 pg/mL
same,"Final DHT, supernatant",5α-reductase,350 pg/mL
same,Total DHT produced,5α-reductase,3.57 ng
"CC=CC=CC=CC(=O)[O-].[K+] [potassium salt of 2,4,6-octatrienoic acid]",Individuals treated with androgenetic alopecia parameters modified in a globally positive manner,androgenetic alopecia; 3 months topical treatment,83%
same,"Hair shaft diameter at T2, Group A)",androgenetic alopecia; [2],0.7 mm
same,"Hair shaft diameter at T2, Group B)",androgenetic alopecia; [2],0.6 mm
same,"Hair shaft diameter at T2, Group C)",androgenetic alopecia; [2],0.4 mm
same,"Percentage of bulbs in the anagen phase at T2, Group A)",androgenetic alopecia; [3],83%
same,"Percentage of bulbs in the anagen phase at T2, Group B)",androgenetic alopecia; [3],74%
same,"Percentage of bulbs in the anagen phase at T2, Group C)",androgenetic alopecia; [3],61%
same,Side effects after using the product,androgenetic alopecia; androgenetic alopecia group,None of the individuals showed any side effects
same,Cases with increase in hair shaft diameter judged highly significant (A),androgenetic alopecia; [4],62%
same,Cases with increase in hair shaft diameter judged not significant (C),androgenetic alopecia; [4],17%
same,Cases with increase in hair shaft diameter judged significant (B),androgenetic alopecia; [4],21%
same,Individuals in whom defluvium of hair in the affected areas diminished,alopecia greata; [5],55%
same,Individuals with stabilisation of the bald patches,alopecia greata; [5],15%
same,Individuals with stoppage in the progression and slight reduction in the extent of the bald patches,alopecia greata; [5],43%
same,"Number of exclamation mark hairs at T2, individuals with stabilisation or slight improvement in bald patches","alopecia greata; T2, mean 82% at T0",46%
same,"Number of exclamation mark hairs at T2, individuals with worsening bald patches","alopecia greata; T2, mean 83% at T0",82%
same,Side effects after using the product,alopecia greata; alopecia greata group,None of the individuals revealed any side effects
same,Individuals treated with global trend towards an improvement (clinical improvement and stabilisation of the bald patches),alopecia greata; three months of treatment,58%

# Reference: patent publication US9668984B2, “Use of compounds to inhibit 5 α-reductase enzyme activity, and pharmaceutical and cosmetic compostions containing them” (GIULIANI S.P.A., priority 2008, dated 2017)
